Relative viability data for four cell lines are collected here from the supplement of paper PMC10307832.

Assay in all cases: relative viability (nuclei count vs DMSO), 5 days (fraction); higher = more cells survive
Compound in assay [1]: CCC1=CN=CN=C1N2CCN(CC2)CC3=NC4=C(N3)C=C(C=C4)C(F)(F)F + C[C@@H](Oc1cc(-c2cnn(C3CCNCC3)c2)cnc1N)c1c(Cl)ccc(F)c1Cl [Crizotinib] (partner 1 µM)
In short, it runs like this:
(§1)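 Relative viability was taken as the ratio of nuclei in treated wells to nuclei in vehicle wells. Lung cancer cell lines in 1536-well plates received compounds by pin tool one day after seeding, either one drug alone or a fixed anchor-drug dose plus five library-drug doses (not always all listed) in √10 steps. Nuclei were counted on 4× images after 5 days of treatment, and values are medians of duplicate plates.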

Compound in assay [2]: CCC1=CN=CN=C1N2CCN(CC2)CC3=NC4=C(N3)C=C(C=C4)C(F)(F)F + C[C@]1(O)C[C@@H](c2nc(-c3ccc4ccc(-c5ccccc5)nc4c3)c3c(N)nccn32)C1 [Linsitinib] (partner 1 µM)
In short, it runs like this:
as §1

Compound in assay [3]: CCC1=CN=CN=C1N2CCN(CC2)CC3=NC4=C(N3)C=C(C=C4)C(F)(F)F + Cc1nc(NC(=O)N2CCC[C@H]2C(N)=O)sc1-c1ccnc(C(C)(C)C(F)(F)F)c1 [Alpelisib] (partner 2 µM)
The gist of the method: as §1

Compound in assay [4]: CCC1=CN=CN=C1N2CCN(CC2)CC3=NC4=C(N3)C=C(C=C4)C(F)(F)F + O=C(c1cc(Cc2n[nH]c(=O)c3ccccc23)ccc1F)N1CCN(C(=O)C2CC2)CC1 [Olaparib] (partner 8 µM)
In short, it runs like this:
as §1

As for RERF-LC-KJ, the relative viability in assay [1] (first compound 0.04 µM) was 0.761; in assay [1] (first compound 0.1265 µM), 0.729; in assay [1] (first compound 0.4 µM), 0.881; in assay [1] (first compound 1.265 µM), 0.913; in assay [1] (first compound 4 µM), 0.982; in assay [2] (first compound 0.04 µM), 0.814. For the same cell line, the relative viability in assay [2] (first compound 0.1265 µM) was found to be 0.827; in assay [2] (first compound 0.4 µM), 0.849; in assay [2] (first compound 1.265 µM), 0.84; in assay [2] (first compound 4 µM), 0.772; in assay [3] (first compound 0.04 µM), 0.866; in assay [3] (first compound 0.1265 µM) it was 0.676. Further, the relative viability in assay [3] (first compound 0.4 µM) stood at 0.834; in assay [3] (first compound 1.265 µM), 0.582; in assay [3] (first compound 4 µM) it was 0.743; in assay [4] (first compound 0.04 µM) it was 0.975; in assay [4] (first compound 0.1265 µM) it was 0.95; in assay [4] (first compound 0.4 µM) it was 0.954. Besides, the relative viability in assay [4] (first compound 1.265 µM) stood at 0.849; in assay [4] (first compound 4 µM), 0.885.
Turning to SK-LU-1, the relative viability in assay [1] (first compound 0.04 µM) turned out to be 1; in assay [1] (first compound 0.1265 µM), 1.1; in assay [1] (first compound 0.4 µM) it was 0.99; in assay [1] (first compound 1.265 µM) it was 1.06; in assay [1] (first compound 4 µM), 1.02; in assay [2] (first compound 0.04 µM), 1.28. Further, the relative viability in assay [2] (first compound 0.1265 µM) was determined as 1.24; in assay [2] (first compound 0.4 µM) it was 1.32; in assay [2] (first compound 1.265 µM), 1; in assay [2] (first compound 4 µM), 1.06; in assay [3] (first compound 0.04 µM), 1.03; in assay [3] (first compound 0.1265 µM), 0.995. The relative viability in assay [3] (first compound 0.4 µM) was 1.04; in assay [3] (first compound 1.265 µM), 0.771; in assay [3] (first compound 4 µM) it was 1; in assay [4] (first compound 0.04 µM), 0.452; in assay [4] (first compound 0.1265 µM), 0.438; in assay [4] (first compound 0.4 µM), 0.47. The relative viability was determined as 0.443 in assay [4] (first compound 1.265 µM) and 0.442 in assay [4] (first compound 4 µM).
For the cell line SK-MES-1, the relative viability in assay [1] (first compound 0.04 µM) is 1.01; in assay [1] (first compound 0.1265 µM), 1.01; in assay [1] (first compound 0.4 µM), 0.942; in assay [1] (first compound 1.265 µM), 1.09; in assay [1] (first compound 4 µM) it was 1.19; in assay [2] (first compound 0.04 µM), 1.02. The relative viability in assay [2] (first compound 0.1265 µM) was determined as 1.06; in assay [2] (first compound 0.4 µM), 1.16; in assay [2] (first compound 1.265 µM) it was 1.1; in assay [2] (first compound 4 µM), 0.95; in assay [3] (first compound 0.04 µM), 0.986; in assay [3] (first compound 0.1265 µM), 1.05. Besides, the relative viability came out at 0.852 in assay [3] (first compound 0.4 µM); 0.868 in assay [3] (first compound 1.265 µM); 0.86 in assay [3] (first compound 4 µM); 0.657 in assay [4] (first compound 0.04 µM); 0.643 in assay [4] (first compound 0.1265 µM); 0.684 in assay [4] (first compound 0.4 µM). The figures for the relative viability in assay [4] (first compound 1.265 µM) and in assay [4] (first compound 4 µM) were 0.592 and 0.673, respectively.
For SW 1573, the relative viability worked out at 0.81 in assay [1] (first compound 0.04 µM); 0.833 in assay [1] (first compound 0.1265 µM); 0.968 in assay [1] (first compound 0.4 µM); 0.834 in assay [1] (first compound 1.265 µM); 0.922 in assay [1] (first compound 4 µM); 0.574 in assay [2] (first compound 0.04 µM). Besides, the relative viability in assay [2] (first compound 0.1265 µM) amounted to 0.683; in assay [2] (first compound 0.4 µM), 0.862; in assay [2] (first compound 1.265 µM) it was 0.777; in assay [2] (first compound 4 µM), 0.866; in assay [3] (first compound 0.04 µM), 0.591; in assay [3] (first compound 0.1265 µM), 0.646. Besides, the relative viability in assay [3] (first compound 0.4 µM) worked out at 0.745; in assay [3] (first compound 1.265 µM) it was 0.579; in assay [3] (first compound 4 µM), 0.687; in assay [4] (first compound 0.04 µM), 0.447; in assay [4] (first compound 0.1265 µM), 0.462; in assay [4] (first compound 0.4 µM) it was 0.45. Also, the results for the relative viability in assay [4] (first compound 1.265 µM) and in assay [4] (first compound 4 µM) were 0.443 and 0.379, respectively.
